Data taken from publication PMC8954350, “Non-Canonical Cannabinoid Receptors with Distinct Binding and Signaling Properties in Prostate and Other Cancer Cell Types Mediate Cell Death” (International Journal of Molecular Sciences, 2022).
Entries after “also recorded” stand apart in the source; their conditions may differ. Where two headings read alike, the source gives them in different places.

Tests used:
[1] = test system: CBRs expressed in DU-145 membranes; format: binding, human
Protocol: The assay was conducted as previously detailed. […] All binding reactions were conducted in triplicate, in a final volume of 1 mL, and, following mixing, were incubated for 20 min in a 37 °C water bath to achieve equilibrium. After incubation, reactions were terminated by rapid vacuum filtration through Whatman GF/B glass fiber filters (Brandel; Gaithersburg, MD, USA), followed by three washes of 4 mls of ice-cold filtration buffer (50 mM Tris, pH 7.4, and 0.05% bovine serum albumin). Samples were punched out from filter papers into scintillation vials, to which 4 mls of ScintiverseTM-BDR cocktail scintillation fluid (Fisher Scientific; Hampton, NH, USA) was added. Filters were incubated at room temperature for 24 h in scintillation fluid, vortexed, and radioactivity (measured as DPMs) was quantified via a liquid scintillation spectrophotometer (Tri Carb 2100 TR Liquid Scintillation Analyzer, Packard Instruments, Meriden, CT, USA).
These experiments were conducted to screen well-characterized cannabinoid ligands with high affinity for canonical CB1 and/or CB2Rs for binding to CBRs expressed in prostate cancer cells lines, as detailed in [33]. […] All binding reactions were conducted in triplicate, in a final volume of 1 mL, and, following mixing, were incubated for 20 min in a 37 °C water bath to achieve equilibrium. After incubation, reactions were terminated by rapid vacuum filtration and processed for radioactivity, as detailed in Section 4.5.1.

[2] = test system: CBRs expressed in PC-3 membranes; assay: [^35S]GTPγS binding, PC-3 membranes; format: biochemical, human; details: 10 μM
Protocol: [^35S]GTPγS binding experiments were conducted to examine G protein modulation by cannabinoids in prostate cancer cell lines DU-145 and PC-3, as detailed previously. Briefly, CHO-hCB2 (50 μg), PC3 (100 μg), or DU-145 (100 μg) membrane homogenates were incubated with a single receptor-saturating concentration (10^−5 M) of cannabinoid ligands to be examined and 0.1 nM [^35S]GTPγS in incubation buffer (20 mM HEPES buffer, pH 7.4, 10 μM GDP, 100 mM NaCl, 0.1% bovine serum albumin, and 10 mM MgCl2). Non-specific binding was defined as radioactivity remaining in the presence of 10 μM of non-radioactive GTPγS and subtracted from total binding to determine specific [^35S]GTPγS binding. All binding reactions were conducted in triplicate, in a final volume of 1 mL, and, following mixing, were incubated for 30 min at 30 °C. After incubation, reactions were terminated by rapid vacuum filtration through Whatman GF/B glass fiber filters (Brandel; Gaithersburg, MD, USA), followed by three washes of 4 mls of ice-cold filtration buffer (50 mM Tris, pH 7.4, and 0.05% bovine serum albumin). Samples were punched out from filter papers into scintillation vials, to which 4 mls of ScintiverseTM-BDR cocktail scintillation fluid (Fisher Scientific; Hampton, NH, USA) was added. Filters were incubated at room temperature for 24 h in scintillation fluid, vortexed, and radioactivity (measured as DPMs) was determined via a liquid scintillation spectrophotometer (Tri Carb 2100 TR Liquid Scintillation Analyzer, Packard Instruments, Meriden, CT, USA).

[3] = test system: CBRs expressed in DU-145 membranes; format: biochemical, human; details: 10 μM
Protocol: Non-specific binding was defined as radioactivity remaining in the presence of 10 μM of non-radioactive GTPγS and subtracted from total binding to determine specific [^35S]GTPγS binding. All binding reactions were conducted in triplicate, in a final volume of 1 mL, and, following mixing, were incubated for 30 min at 30 °C. After incubation, reactions were terminated by rapid vacuum filtration through Whatman GF/B glass fiber filters (Brandel; Gaithersburg, MD, USA), followed by three washes of 4 mls of ice-cold filtration buffer (50 mM Tris, pH 7.4, and 0.05% bovine serum albumin). Samples were punched out from filter papers into scintillation vials, to which 4 mls of ScintiverseTM-BDR cocktail scintillation fluid (Fisher Scientific; Hampton, NH, USA) was added. Filters were incubated at room temperature for 24 h in scintillation fluid, vortexed, and radioactivity (measured as DPMs) was determined via a liquid scintillation spectrophotometer (Tri Carb 2100 TR Liquid Scintillation Analyzer, Packard Instruments, Meriden, CT, USA).

[4] = test system: CBRs expressed in DU-145 cells; format: cell-based, human
Protocol: (§1) These studies were conducted to determine the effect of chronic exposure of PC-3 and DU-145 cells to cannabinoid ligands with high affinity for non-canonical CBRs on receptor expression. PC-3 or DU-145 cells were seeded into T25 flasks at a density of 1.6 × 10^6 cells in normal medium and cultured at 37 °C with 5% CO2 for 24 h. Following overnight seeding, culture media was aspirated and replaced with serum-free medium containing vehicle or a receptor-saturating concentration (10 μM) of each cannabinoid ligand to be tested. Cells were subsequently cultured at 37 °C with 5% CO2 for an additional 48 h. […] Cells were then centrifuged at 1200 rpm for 10 min, and pellets were stored in −80 °C until future use.
(§2) All binding reactions were conducted in triplicate, in a final volume of 1 mL, and following mixing were incubated for 20 min in a 37 °C water bath to achieve equilibrium. After incubation, reactions were terminated by rapid vacuum filtration through Whatman GF/B glass fiber filters (Brandel; Gaithersburg, MD, USA), followed by three washes of 4 mls of ice-cold filtration buffer (50 mM Tris, pH 7.4, and 0.05% bovine serum albumin). Samples were punched out from filter papers into scintillation vials, to which 4 mls of ScintiverseTM-BDR cocktail scintillation fluid (Fisher Scientific; Hampton, NH, USA) was added. Filters were incubated at room temperature for 24 h in scintillation fluid, vortexed, and radioactivity (measured as DPMs) was quantified via a liquid scintillation spectrophotometer (Tri Carb 2100 TR Liquid Scintillation Analyzer, Packard Instruments, Meriden, CT, USA).

[5] = test system: CBRs expressed in PC-3 cells; format: cell-based, human
Protocol: as §1, §2

DU-145 cells = assay: LDH cytotoxicity, DU-145 cells; format: cell-based, human; details: 24 h; for LDH release: 10 μM; for increase in LDH release: 50 μM
Protocol: DU-145 cells were seeded at a density of 130 × 10^3 cells/well in 6-well plates and maintained in an incubator at 37 °C with 5% CO2 for 24 h. […] Treated cells were incubated for an additional 24 h, followed by quantification of LDH release. LDH released from damaged or dying cells oxidizes lactate to produce NADH which then reacts with a water-soluble tetrazolium salt (WST) reagent to produce a yellow-colored product. The intensity of the yellow-colored product was detected with an OD reading at 450 nm (quantified by a BioTek microplate reader interfaced with SoftMax Pro 5.4.5 software; Winooski, VT, USA) and was directly proportional to the amount of LDH released. Percent cytotoxicity was calculated according to the manufacturer’s protocol as the following: % Cytotoxicity=OD450 Supernatant/Supernatant+Lysate

| Compound | displacement of [^3H]WIN-55,212-2 [1] | modulation of [^35S]GTPγS binding [2] | modulation of [^35S]GTPγS binding [3] | CBR downregulation (reduction of [^3H]WIN-55,212-2 (1 nM) binding) [4] [%] | CBR downregulation (reduction of [^3H]WIN-55,212-2 (1 nM) binding) [5] | LDH release (DU-145 cells) | increase in LDH release (DU-145 cells) | attenuation of GW-405833 (50 μM)-induced LDH release (DU-145 cells; co-incubation with 10 μM ligand) | displacement of [^3H]WIN-55,212-2 ([1]; 1 μM ligand, 1 nM radioligand, DU-145 membranes) | decrease in [^35S]GTPγS binding below basal levels [3] [%] | CBR downregulation (reduction of [^3H]WIN-55,212-2 (1 nM) binding) ([4]; DU-145 cells, 10 μM, 48 h, vs vehicle) [%] | CBR downregulation (reduction of [^3H]WIN-55,212-2 (1 nM) binding) ([5]; PC-3 cells, 10 μM, 48 h, vs vehicle) [%] |
| --- | --- | --- | --- | --- | --- | --- | --- | --- | --- | --- | --- | --- |
| Cc1c(C(=O)NN2CCCCC2)nn(-c2ccc(Cl)cc2Cl)c1-c1ccc(Cl)cc1 [rimonabant] | greater than 50% | did reduce [^35S]GTPγS binding below basal levels | did reduce [^35S]GTPγS binding below basal levels | 63.75 ± 15.5 | non-significant trend towards decreased receptor expression | No significant effects | 16.5 ± 3.5% | almost completely blocked GW-405833 induced LDH release | – | – | – | – |
| COc1ccc2c(c1)c(CCN1CCOCC1)c(C)n2C(=O)c1cccc(Cl)c1Cl [GW-405833] | greater than 50% | neither the agonist at canonical CB1/CB2 receptors WIN-55-212-2 (10 μM) nor the CB2-selective agonist GW-405-833 (10 μM) increased [^35S]GTPγS binding | neither the agonist at canonical CB1/CB2 receptors WIN-55-212-2 (10 μM) nor the CB2-selective agonist GW-405-833 (10 μM) increased [^35S]GTPγS binding | 55 ± 12.5 | 68.33 ± 3.8% | No significant effects | 74.2 ± 4.5% | – | – | – | – | – |
| Cc1c(C(=O)c2cccc3ccccc23)c2cccc3c2n1[C@H](CN1CCOCC1)CO3 [WIN-55,212-2] | – | neither the agonist at canonical CB1/CB2 receptors WIN-55-212-2 (10 μM) nor the CB2-selective agonist GW-405-833 (10 μM) increased [^35S]GTPγS binding | neither the agonist at canonical CB1/CB2 receptors WIN-55-212-2 (10 μM) nor the CB2-selective agonist GW-405-833 (10 μM) increased [^35S]GTPγS binding | – | – | neither low (10 μM) nor high (50 μM) concentrations of WIN-55,212-2, AM-251 or AM-630 altered LDH release | neither low (10 μM) nor high (50 μM) concentrations of WIN-55,212-2, AM-251 or AM-630 altered LDH release | – | significantly displaced; also recorded: complete displacement | 15.3 ± 1.6 | 88.45 ± 5.22 | 84.33 ± 5.2 |
